Molecules are shown by their SMILES.

One assay relates to KB. Put plainly: Antiproliferative activity against human KB cells. It is filed as functional, cell-based.
For assay [1], the system named is A2780. The assay is described as follows: Antiproliferative activity against human A2780 cells. It is filed as functional, cell-based.
The test system of assay [2] is P388. The assay is described as follows: Antiproliferative activity against mouse P388 cells. The class given is functional, cell-based.
Assay [3] can be described thus: Antiproliferative activity against endothelial cells. The class given is cell-based. The note with it: Endothelial cell.
For assay [4], the system named is A2780. The assay is described as follows: Ratio of IC50 for human KB cells to IC50 for human A2780 cells. It is filed as functional.
Assay [5] concerns P388. The assay is described as follows: Ratio of IC50 for mouse P388 cells to IC50 for human A2780 cells. The class given is functional.
The subject of assay [6] is A2780. Put plainly: Ratio of IC50 for endothelial cells to IC50 for human A2780 cells.

What is called IC50 is the concentration needed to halve the response being measured. Read a high IC50 as lower potency. As for `C/C=C/C(O)C/C=C/C[C@H](C)[C@@H](O)CC(=O)NC[C@H](O)[C@H](C)C(=O)NCCC[C@H]1O[C@@]2(CCC[C@@H](CC[C@H](C)/C=C(\C)C(C)=O)O2)CC[C@@H]1C` (some centres undefined), the IC50 was 45 nM in the assay with KB, 340 nM in the assay on A2780 [1], 20 nM in the assay with P388 [2] and 22 nM in assay [3]. The “Ratio IC50” value with A2780 [4], with P388 [5] and in the assay on A2780 [6] was 10 in each case.
Take `C/C=C/C(=O)C[C@H]1CC[C@H](C)[C@H](CC(=O)NC[C@H](O)[C@H](C)C(=O)NCCC[C@H]2O[C@@]3(CCC[C@H](CC[C@H](C)/C=C(\C)[C@H](C)O)O3)CC[C@@H]2C)O1` [BISTRAMIDE A]: the IC50 in the assay with KB came out at 45 nM; in the assay with A2780 [1], 260 nM; with P388 [2], 20 nM; in assay [3], 22 nM. Also, the “Ratio IC50” value in the assay with A2780 [4], in the assay with P388 [5] and in the assay on A2780 [6] was 10 throughout.

These data come from ChEMBL document CHEMBL1152394, “Antiproliferative bistramides from Trididemnum cyclops from Madagascar (1)” (J Nat Prod, 2009).
